For one series, the target named is T1, β1-35 peptide (Homo sapiens, UniProt P05067).
T1 construct: made in house; host or cells: chemical solid-phase synthesis (Fmoc)
The series is described as follows: β-amyloid protein aggregation inhibition by SDS-PAGE (Example 1). Type of series: biochemical. Particulars: drug agent 100 µg/ml; β1-35 peptide 2 mg/ml; room temperature; control and methanol solutions aggregated by the 7th day. The text has this:
When synthesized β-amyloid protein is subjected to SDS-PAGE, a 3-4 kDa band due to the peptide monomer is observed. However, when the protein begins to aggregate, this monomer band becomes thinner and a smear is observed at the high molecular end (Tomiyama, et al. 1994, J. Biol. Chem. 269, 10205-10208). The inhibitory activity of a drug agent against β-amyloid protein aggregation may be determined by measuring the aggregation period of β-amyloid in admixture with the drug agent based on the decrease in peptide monomer or appearance of smearing observed with SDS-PAGE.
Specifically, 10 µl of solution is taken from a reagent solution containing β-amyloid protein and a drug agent, an equivalent of a sample buffer for electrophoresis (20 mM Tris-HCl buffer, pH 6.8, 40% glycerin, 2% SDS, 2% β-mercaptoethanol) is added thereto, and the mixture is boiled at 100°C for 5 minutes. Next, 10 µl of the solution is placed on a 15-25% polyacrylamide gradient gel for electrophoresis in a Tris-glycine buffered system. After completion of the electrophoresis, the gel is stained with 0.2% Coomassie brilliant blue solution and the amount of peptide monomer (band thickness) and presence of smearing is observed. […]

The conditions of series [1]: administered orally to patients at about 300-600 mg/day; cited from earlier work.
For series [2] the following is noted: oral administration to rats; cited from earlier work.

T1 sequence (P05067 672-706): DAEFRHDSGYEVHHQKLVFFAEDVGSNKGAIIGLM

As to `COC1C=COC2(C)Oc3c(C)c(O)c4c(O)c(cc(OCC(=O)O)c4c3C2=O)NC(=O)C(C)=CC=CC(C)C(O)C(C)C(O)C(C)C(OC(C)=O)C1C` (stereo not shown) [rifamycin B, Rifamycin B], the “reduction in peptide monomer and appearance of smear (β1-35 peptide aggregation)” value at β1-35 peptide is “no reduction in peptide monomer or smearing was observed up to the 14th day after dissolution”.
`CO[C@H]1/C=C/O[C@@]2(C)Oc3c(C)c(O)c4c(O)c(c(/C=N/N5CCN(C)CC5)c(O)c4c3C2=O)NC(=O)/C(C)=C\C=C\[C@H](C)[C@H](O)[C@@H](C)[C@@H](O)[C@@H](C)[C@H](OC(C)=O)[C@@H]1C` [rifampicin, Rifampicin]: the maximum blood concentration entry in series [1] is given as “about 10 µg/ml”. In addition, the LD₅₀ value in series [2] is reported as 1720 mg/kg.
On to `CO[C@H]1/C=C/O[C@@]2(C)Oc3c(C)c(O)c4c(O)c(cc(O)c4c3C2=O)NC(=O)/C(C)=C\C=C\[C@H](C)[C@H](O)[C@@H](C)[C@@H](O)[C@@H](C)[C@H](OC(C)=O)[C@@H]1C` [rifamycin SV, Rifamycin SV], for which the “reduction in peptide monomer and appearance of smear (β1-35 peptide aggregation)” value at β1-35 peptide is “no reduction in peptide monomer or smearing was observed up to the 14th day after dissolution”.

The record behind these values is patent EP0675126A1, “AMYLOID BETA-PROTEIN AGGLUTINATION AND/OR DEPOSITION INHIBITOR” (TEIJIN LIMITED, priority 1993, dated 1995).
